The record followed here is patent US5464617A, “β-lactam compounds” (Hoffmann-La Roche Inc., priority 1994, dated 1995).

Values after ≈ are worked out from the molar mass of the structure shown. Where a name gives a salt, the structure may show the parent alone.

Test [1] relates to Citrobacter freundii 1982. Put plainly: MIC in vitro of a 1:4 combination of ceftriaxone with a compound of formula I (Test D). The test is classed as cell-based. Particulars: for MIC C. freundii 1982 (D): test D; for MIC C. freundii 1982: Table 2. Here is the method: The minimum inhibitory concentration in vitro ([…]) of a 1:4 combination of ceftriaxone with a compound of formula I against Citrobacter freundii 1982 was measured and compiled in Table 2 hereinafter.

In the next test the test system is E. coli 1346. The experiment in a line: Antibacterial activity of the products per se, serial dilution method in liquid medium (Test E). It is filed as cell-based. Conditions: product per se; for MIC E. coli 1346 (E): test E; for MIC E. coli 1346: Table 3, liquid medium. The source says:
The antibacterial activity of the products per se is illustrated on the basis of Table 3 hereinafter, the minimum inhibitory concentration […] in vitro against E. coli 1346 being determined using the serial dilution method in liquid medium: […]

[2] abbreviates: Table 4, 1:4 combination of ceftriaxone with the compound.
Where [3] appears, read: 1:4 combination of ceftriaxone with the compound.

As for `CC(=O)N1C[C@H]2CC(CSc3nnnn3CC(=O)NCCc3ccccc3)=C(C(=O)O)N3C(=O)[C@@H]1[C@@H]23` [80(a), (1aS,3aR,6bR)-2-Acetyl-1-oxo-5-[1-(phenethylcarbamoylmethyl)-1H-tetrazol-5-ylsulphanylmethyl]-1a,2,3,3a,4,6b-hexahydro-1H-2,6a-diazacyclobut[cd]indene-6-carboxylic acid sodium salt], the “MIC C. freundii 1982 (D)” value in test [1] (setting [2]) amounted to 4 µg/mL. In addition, the “MIC E. coli 1346 (E)” value with E. coli 1346 (Table 4) is 0.5 µg/mL.
In the case of `NC(=O)Cn1nnnc1SCC1=C(C(=O)O)N2C(=O)[C@@H]3[C@H]2[C@H](C1)CN3C(=O)C(F)(F)F` [70(b), (1aS,3aR,6bR)-5-(1-Carbamoylmethyl-1H-tetrazol-5-ylsulphanylmethyl)-2-trifluoroacetyl-1-oxo-1a,2,3,3a,4,6b-hexahydro-1H-2,6a-diazacyclobut[cd]indene-6-carboxylic acid sodium salt], the “MIC C. freundii 1982 (D)” value in test [1] (setting [2]) was 0.5 µg/mL. In addition, the “MIC E. coli 1346 (E)” value against E. coli 1346 (Table 4) was 1 µg/mL.
In the same order, the values of `NC(=O)CN1C[C@H]2CC(COC(N)=O)=C(C(=O)O)N3C(=O)[C@@H]1[C@@H]23` [59(d), (1aS,3aR,6bR)-2-Carbamoylmethyl-5-carbamoyloxymethyl-1-oxo-1a,2,3,3a,4,6b-hexahydro-1H-2,6a-diazacyclobut[cd]indene-6-carboxylic acid sodium salt] are 1 µg/mL and 8 µg/mL.
For the compound `CC(=O)N1C[C@H]2CC(CSc3ncccn3)=C(C(=O)O)N3C(=O)[C@@H]1[C@@H]23` [72(a), (1aS,3aR,6bR)-2-Acetyl-1-oxo-5-(pyrimidin-2-ylsulphanylmethyl)-1a,2,3,3a,4,6b-hexahydro-1H-2,6a-diazacyclobut[cd]indene-6-carboxylic acid sodium salt], the “MIC C. freundii 1982 (D)” value in test [1] (setting [2]) stood at 4 µg/mL. The “MIC E. coli 1346 (E)” value with E. coli 1346 (Table 4) was found to be 2 µg/mL.
In the case of `Cn1nnnc1SC1=C(C(=O)O)N2C(=O)[C@@H]3[C@H]2[C@H](C1)CN3C(=O)NCc1cccs1` [3(d), (1aS,3aR,6bR)-5-(1-Methyl-1H-tetrazol-5-ylsulphanyl)-1-oxo-2-(thien-2-ylmethylcarbamoyl)-1a,2,3,3a,4,6b-hexahydro-1H-2,6a-diazacyclobut[cd]indene-6-carboxylic acid sodium salt], the “MIC C. freundii 1982” value in test [1] (setting [3]) turned out to be 1 µg/mL. Further, in the test with E. coli 1346, the “MIC E. coli 1346” value came to 32 µg/mL.
Take `C[n+]1ccc(SCC2=C(C(=O)[O-])N3C(=O)[C@H]4NC[C@@H](C2)[C@H]43)cc1` [Example 20, (1aS,3aR,6bR)-5-(1-Methyl-pyridin-4-yliosulphanylmethyl)-1-oxo-1a,2,3,3a,4,6b-hexahydro-1H-2,6a-diazacyclobut[cd]indene-6-carboxylate trifluoroacetate]: the “MIC C. freundii 1982” value in test [1] (setting [3]) was 1 µg/mL. In the test on E. coli 1346, the “MIC E. coli 1346” value was ≤ 0.5 µg/mL.
For the compound `CSc1nnnn1CC1=C(C(=O)O)N2C(=O)[C@H]3NC[C@@H](S1)[C@H]32` [Example 44, (1aS,3aR,6bS)-5-(5-Methylsulphanyl-1H-tetrazol-1-ylmethyl)-1-oxo-1,1a,2,3,3a,6b-hexahydro-4-thia-2,6a-diazacyclobut[cd]indene-6-carboxylic acid sodium salt], the “MIC C. freundii 1982 (D)” value in test [1] (setting [2]) came out at 4 µg/mL. For the same compound, in the test with E. coli 1346 (Table 4), the “MIC E. coli 1346 (E)” value stood at 32 µg/mL.
As to `CC(=O)NCC1=C(C(=O)O)N2C(=O)[C@@H]3[C@H]2[C@H](C1)CN3C(=O)Nc1ccc(O)cc1` [Example 85, (1aS,3aR,6bR)-5-Acetylaminomethyl-2-(4-hydroxy-phenylcarbamoyl)-1-oxo-1a,2,3,3a,4,6b-hexahydro-1H-2,6a-diazacyclobut[cd]indene-6-carboxylic acid sodium salt], the “MIC C. freundii 1982 (D)” value in test [1] (setting [2]) turned out to be 0.5 µg/mL. Further, the “MIC E. coli 1346 (E)” value against E. coli 1346 (Table 4) is > 32 µg/mL.
For `NC(=O)Cn1nnnc1SCC1=C(C(=O)O)N2C(=O)[C@H]3NC[C@@H](C1)[C@H]32` [Example 69, (1aS,3aR,6 bR)-5-(1-Carbamoylmethyl-1H-tetrazol-5-ylsulphanylmethyl)-1-oxo-1a,2,3,3a,4,61>hexahydro-1H-2,6a-diazacyclobut[cd]indene-6-carboxylic acid trifluoroacetate], in that order: 0.5 µg/mL and 2 µg/mL.
For `Cn1ccnc1SCC1=C(C(=O)O)N2C(=O)[C@H]3NC[C@@H](S1)[C@H]32` [40(c), (1aS,3aR,6bS)-5-(1-Methyl-imidazol-2-ylsulphanyl-methyl)-1-oxo-4-thia-1,1a,2,3,3a,6b-hexahydro-2,6a-diazacyclobut[cd]indene-6-carboxylic acid], in that order: 0.5 µg/mL and > 32 µg/mL.
For `Cn1nnnc1SCC1=C(C(=O)O)N2C(=O)[C@@H]3[C@H]2[C@H](C1)CN3CC(=O)Nc1ccc(O)cc1` [61(b), (1aS,3aR,6bR)-2-(4-Hydroxy-phenylcarbamoylmethyl)-5-(1-methyl-1H-tetrazol-5-ylsulphanylmethyl)-1-oxo-1a,2,3,3a,4,6b-hexahydro-1H-2,6a-diazacyclobut[cd]indene-6-carboxylic acid sodium salt], in that order: 2 µg/mL and 16 µg/mL.
`NC(=O)CNC(=O)OCC1=C(C(=O)O)N2C(=O)[C@H]3NC[C@@H](C1)[C@H]32` [Example 95, (1aS,3aR,6bR)-5-Carbamoylmethylcarbamoyloxymethyl-1-oxo-1a,2,3,3a,4,6b-hexahydro-1H-2,6a-diazacyclobut[cd]indene-6-carboxylic acid trifluoroacemte]: the “MIC C. freundii 1982 (D)” value in test [1] (setting [2]) came to 0.5 µg/mL. Further, in the test on E. coli 1346 (Table 4), the “MIC E. coli 1346 (E)” value is 4 µg/mL (≈ 12.3 µM).
In the same order, the values of `O=C(NCc1ccc(O)cc1)OCC1=C(C(=O)O)N2C(=O)[C@H]3NC[C@@H](C1)[C@H]32` [Example 101, (1aS,3aR,6bR)-5-[(4-Hydroxy-benzyl)-carbamoyloxymethyl]-1-oxo-1a,2,3,3a,4,6b-hexahydro-1H-2,6a-diazacyclobut[cd]indene-6-carboxylic acid trifluoroacetate] are 1 µg/mL and 2 µg/mL.
For `CC(=O)N1C[C@H]2OC(CSc3nnnn3CC(N)=O)=C(C(=O)O)N3C(=O)[C@@H]1[C@@H]23` [32(e), (1aS,3aR,6bS)-2-Acetyl-5-(1-carbamoylmethyl-1H-tetrazol-5-ylsulphanylmethyl)-1-oxo-1,1a,2,3,3a,6b-hexahydro-4-oxa-2,6a-diazacyclobut[cd]indene-6-carboxylic acid sodium salt], the “MIC C. freundii 1982 (D)” value in test [1] (setting [2]) stood at 2 µg/mL. Further, the “MIC E. coli 1346 (E)” value with E. coli 1346 (Table 4) was 4 µg/mL.
For `NC(=O)Cn1nnnc1SCC1=C(C(=O)O)N2C(=O)[C@@H]3[C@H]2[C@@H](CN3C=O)O1` [38(b), (1 aS ,3aR, 6 bS )-5-(1-Carbamoylmethyl-1H-tetrazol-5-yl-sulfanylmethyl)-2-formyl-1-oxo-1,1a,2,3,3a,6b-hexahydro-4-oxa-2,6a-diaza-cyclobut[cd]indene-6-carboxylic acid sodium salt], in that order: 4 µg/mL and 8 µg/mL.
On to `NC(=O)OCC1=C(C(=O)O)N2C(=O)[C@@H]3[C@H]2[C@H](C1)CN3C(=O)C(F)(F)F` [58(d), (1aS,3aR,6bR)-5-Carbamoyloxymethyl-1-oxo-2-trifluoroacetyl-1a,2,3,3a,4,6b-hexahydro-1H-2,6a-diazacyclobut[cd]indene-6-carboxylic acid sodium salt], for which the “MIC C. freundii 1982 (D)” value in test [1] (Table 5, particularly preferred products, 1:4 combination with ceftriaxone) worked out at 0.5 µg/mL. Besides, in the test with E. coli 1346 (Table 5, particularly preferred products), the “MIC E. coli 1346 (E)” value amounted to 1 µg/mL.
Regarding `NC(=O)Cn1nnnc1SCC1=C(C(=O)O)N2C(=O)[C@@H]3[C@H]2[C@@H](CN3C(=O)C(F)(F)F)O1` [Example 39, (1aS,3aR,6bS)-5-(1-Carbamoylmethyl-1H-tetrazol-5-ylsulphanylmethyl)-1-oxo-2-trifluoroacetyl-1,1a,2,3,3a,6b-hexahydro-4-oxa-2,6a-diazacyclobut[cd]indene-6-carboxylic acid sodium salt], the “MIC C. freundii 1982 (D)” value in test [1] (setting [2]) worked out at 2 µg/mL. For the same compound, in the test with E. coli 1346 (Table 4), the “MIC E. coli 1346 (E)” value came to 8 µg/mL.
In the same order, the values of `CC(=O)N1C[C@H]2OC(CSc3nnnn3CC(=O)NC3CC3)=C(C(=O)O)N3C(=O)[C@@H]1[C@@H]23` [32(d), (1a-S,3aR,6bS)-2-Acetyl-5-(1-cyclopropylcarbamoylmethyl-1H-tetrazol-5-ylsulphanylmethyl)-1-oxo-1,1a,2,3,3a,6b-hexahydro-4-oxa-2,6a-diazacyclobut[cd]indene-6-carboxylic acid sodium salt] are 16 µg/mL and 16 µg/mL.
In the same order, the values of `N#C/C=C\C1=C(C(=O)O)N2C(=O)[C@H]3NC[C@@H](C1)[C@H]32` [48(a), (Z)-(1aS,3aR,6bR)-5-(2-Cyanovinyl)-1-oxo-1a,2,3,3a,4,6b-hexahydro-1H-2,6a-diazacyclobut[cd]indene-6-carboxylic acid trifluoroacetate] are 4 µg/mL and 16 µg/mL.
In the same order, the values of `NC(=O)CNC(=O)Cn1nnnc1SCC1=C(C(=O)O)N2C(=O)[C@H]3NC[C@@H](O1)[C@H]32` [29(i), (1aS,3aR,6bS)-5-(1-(Carbamoylmethyl-carbamoylmethyl)-1H-tetrazol-5-ylsulphanylmethyl)-1-oxo-1,1a,2,3,3a,6b-hexahydro-4-oxa-2,6a-diazacyclobut[cd]indene-6-carboxylic acid] are 8 µg/mL and 8 µg/mL (≈ 18.9 µM).
With `NC(=O)CSC1=C(C(=O)O)N2C(=O)[C@H]3NC[C@@H](C1)[C@H]32` [Example 2(f), (1aS,3aR,6bR)-5-Carbamoylmethylsulphanyl-1-oxo-1a,2,3,3a,4,6b-hexahydro-1H-2,6a-diazacyclobut[cd]indene-6-carboxylic acid trifluoroacetate], the “MIC C. freundii 1982 (D)” value in test [1] (setting [2]) came to 2 µg/mL. Further, the “MIC E. coli 1346 (E)” value against E. coli 1346 (Table 4) came to 8 µg/mL.
